Assay results: a melting point compilation (Tetko et al.; mined from patent text by program, amines drawn as free bases though some values may be those of a salt)

Compound	melting point [°C]
Cc1noc(NS(=O)(=O)c2ccccc2-c2ccc(-c3ncco3)cc2Cc2ncco2)c1C	88 to 95
CCc1ccc(Oc2cnc[nH]c2=O)cc1	144 to 146
Cn1cc(C(=O)c2ccncc2)cc1C(=O)c1ccccc1	127 to 129
C=CCN1C(=O)c2cccc3c(N(C)CCO)ccc(c23)C1=O	90 to 91
CC12CC=C3C4=C(CCC3C1CCC2=O)CC1(CC4)OCCO1 (stereo unspecified)	110 to 112
O=C(Nc1cc(-c2nc(Cc3ccccc3)no2)ccn1)c1ccccc1	150 to 151
CC(C)Cc1nc(N)c(C(=O)c2c[nH]c3ccccc23)[nH]c1=O	228 to 230
CC(C)CCCC(C)C1CCC2C3CC=C4CC(OCC(=O)O)CCC4(C)C3CCC12C (stereo unspecified)	160
Cc1ccc(-c2nc(N)n3nc(-c4ccco4)nc3n2)cc1	> 275
COc1ccc(N2CCN(c3ccc(OC(F)(F)F)cc3)C(=O)C2)c(-c2ccc(N(C)C)cc2)n1	116 to 120
Cc1cc(Oc2ccc(S(C)(=O)=O)c(S(F)(F)(F)(F)F)c2)c(S(C)(=O)=O)cc1C(=O)NC(=N)N	275
CC(C)(C)c1ccc(S(=O)(=O)N2c3ccccc3C[C@H]2C(=O)NCc2ccc(Cl)cc2)cc1	69
CCC(C#Cc1cccc(Oc2ccccn2)c1)N(O)C(N)=O (stereo unspecified)	96 to 98
Cn1cnc(-c2ccccc2)c1-c1nn(-c2cccc(C(F)(F)F)c2)ccc1=O	214 to 216
c1ccc(-c2nc(-c3ccc4c(c3)OCO4)sc2-c2ccccc2)cc1	121 to 124
CC(=O)NCCn1ccc(=O)c(OCc2ccccc2)c1C(O)c1ccccc1 (stereo unspecified)	180 to 182
CC1(C)CC(N(c2nc(F)nc(N(C3CC(C)(C)NC(C)(C)C3)C3CC(C)(C)NC(C)(C)C3)n2)C2CC(C)(C)NC(C)(C)C2)CC(C)(C)N1	298 to 304
CC(=O)Nc1c(C)cc(OC(C)=O)c(C)c1C	174 to 175
O=C(O)CN(Cc1ccccc1)C(=O)CCc1nc2c(F)c(F)cc(F)c2s1	144 to 146
Cn1nc(-c2ccccc2F)nc1-c1ccccc1C(F)(F)F	104 to 107
CCN1C(=O)C(C)(C)C(=O)N(C)c2cc(CCN(CCn3cc(C)c4oc(C)cc4c3=O)Cc3cc(C)nn3C)ccc21	168 to 170

Compound	melting point [°C]
Cc1nc(NC(=O)c2cnn3c(C(F)(F)F)cc(-c4ccc(C(F)(F)F)cc4)nc23)sc1S(=O)(=O)NCCN(C)C	235
Brc1cccc(C=C2c3ccccc3CCc3ccccc32)c1	105
COc1cc(NS(=O)(=O)c2ccc(N3CCNC3=O)cc2)cc(OC)c1	200 to 201
COC(=O)c1cc(CN=C=S)cc(CN=C=S)c1	67 to 69
CCOC(=O)C(=CN(C)C)C(=O)c1cc(F)c(Cl)cc1Cl	94 to 95
CCCCC1(CCCC)CS(=O)(=O)c2ccc(N(C)C)cc2[C@@H](c2ccc(OCc3ccc(C(=O)O)cc3)cc2)[C@H]1O	156 to 159
Cc1oc(-c2ccco2)nc1COc1ccc(COc2nn(Cc3ccccc3)cc2C=O)cc1OCc1ccccc1	130 to 131
CC12CCC3c4ccc(OC(=O)c5cccnc5)cc4CCC3C1CCC2OC(=O)c1cccnc1 (stereo unspecified)	148 to 150
c1ccc(-c2ccccc2OCCCCCCOc2ccccc2-c2ccccc2)cc1	92 to 95
Cc1noc(NS(=O)(=O)c2ccc(-c3cccs3)s2)c1Br	210
NC(=C[N+](=O)[O-])NCc1ccc(Cl)cc1	215 to 216
O=C(c1ccc(-c2ccccc2)cc1)c1ccc2n1Cc1ccccc1N(C(=O)COc1ccc(Cl)cc1)C2	155 to 157
CCOC(=O)N(CCCOCCOCCCN(C(=O)OCC)C1CC(C)(C)NC(C)(C)C1)C1CC(C)(C)NC(C)(C)C1	92 to 93
NC(=O)Nc1ccc(C(O)(C(F)(F)F)C(F)(F)F)cc1	176 to 179
CCCCCCCCCCNC(=O)c1ccccc1N	72 to 74
Cn1cnc(-c2ccc(NC(=C3C(=O)Oc4ccccc43)c3ccc(C(C)(C)N)cc3)cc2)c1	> 280
OC1CC2(CCNC2)c2ccc(Cl)c(Cl)c21 (stereo unspecified)	167 to 170
COC(=O)C(Br)c1ccc(OCCOc2ccc(Cl)cc2)cc1 (stereo unspecified)	76 to 80
COc1ccc(CNc2ccccc2[N+](=O)[O-])cc1	75 to 78
Oc1ccc(-c2ccc3c(-c4ccccc4)c(O)ccc3c2)cc1	142 to 146
Cn1c(CNCC2CCOCC2)cc2cc(NC(=O)c3ccc(OC[C@@H]4CCCO4)cc3)ccc21	157 to 158

Compound	melting point [°C]
CC(C)C(c1cncnc1C(F)(F)F)N(C)C(=O)Cc1ccccn1 (stereo unspecified)	99 to 100
CCCN1C(=O)C2(CC(C)C)CC(c3ccc(N)cc3)(C2)C1=O	86.5 to 87
O=C1CCC(N2Cc3cc(CNC(=O)Nc4cccc5ccccc45)ccc3C2=O)C(=O)N1 (stereo unspecified)	250 to 252
CCOC(=O)COc1cc2cc(CC(C)C)sc2c(Cl)c1Cl	75 to 76
CCOC(=O)CSc1nc(Cl)cc(Nc2ccc(OC)cc2)n1	96 to 97.5
O=Cc1ccc(OCC=Cc2ccccc2)cc1	89.5 to 90.5
COc1ccc(-c2ccc3c(n2)CCC(C)(C)C3=O)cc1	158 to 159
CN1C(=O)CN=C(c2ccccc2F)c2cc(NC(=O)N3CCSC3)ccc21	185
CCCN(CCC)C1Cc2c[nH]c3ccc(C(=O)CC)c(c23)C1 (stereo unspecified)	149 to 150
CC1(C)CC2(CC(C)(C)N1O)OC1(CCCCCCCCCCC1)NC2=O	236 to 238
CC(C)CC1N=C(c2ccccc2)OC1=O (stereo unspecified)	53 to 55
Nc1ccc(C23CC(C2)C(=O)N(Cc2ccccc2)C3=O)cc1	164 to 166
CC(=O)c1cc2c(s1)SCCN(CCCCCl)C2=O	132 to 134
CCCCCCCNC(=O)Nc1ccccc1C(=O)NCCCC1CCN(C(c2ccccc2)c2ccccc2)CC1	123 to 124
Cc1nc(-c2cccc(Cl)c2)c(CCC(=O)O)o1	159 to 160
O=C(O)C1Cc2c([nH]c3ccccc23)CN1C(=S)SCc1ccc([N+](=O)[O-])cc1 (stereo unspecified)	194 to 195
CCOC(=O)c1nc(N)sc1C(=O)CC	134 to 135
CC[C@@H]1N(c2ccc(C#N)c(Cl)c2)C(=O)C[C@]1(C)O	144 to 146
COc1ccc2c(c1)C(c1ccc([N+](=O)[O-])cc1)=Nn1c(C)nnc1C2	192 to 194
Cc1nn(-c2cc(OC(C)C(=O)NS(C)(=O)=O)c(Cl)cc2Cl)c(=O)n1C(F)F (stereo unspecified)	185 to 188
Nc1ccc(Oc2cccc3c(Oc4ccc(N)c(O)c4)cccc23)cc1O	251 to 253

Results, then the molecule that gave them:

melting point [°C]	Compound
155 to 156	CS(=O)(=O)c1ccc(-c2nc(SCc3ccccc3)[nH]c2-c2ccc(F)cc2)cc1
148 to 161	OCCCNc1nc2cc(C(F)(F)F)c(Br)cc2n2ccnc12
175 to 178	CNC(=O)Nc1cccc(C(=S)NC(C)C)c1
148 to 150	CN1CCn2nc(Nc3cc(-c4cccc(N5Cc6cc(N(C)C)ccc6C5=O)c4CO)cn(C)c3=O)cc2C1
110 to 115	COc1cccc(CC2CCN(C(=O)C(=O)Nc3ccc4[nH]c(=O)oc4c3)CC2)c1
192 to 194	Cc1cc(C)nc(NC(=O)NS(=O)(=O)c2cc(Cl)sc2Cl)n1
184 to 185	Oc1c(F)cc(Cn2cnnc2S)cc1F
129 to 130	CNC(=O)N(O)C(C)c1ccc(Br)cc1 (stereo unspecified)
232 to 234	CCn1cc(C(=O)O)c(=O)c2cc(F)c(N3CCCC(O)C3)c(F)c21 (stereo unspecified)
182	CCOC(=O)c1cc(S(=O)(=O)c2ccccc2)c2ccccn2c1=O
142	COc1cc(C(C)(C)CC(C)(C)C)c(OC)cc1C(=O)CCC(=O)O
230 to 233	COCCOc1cc2ncc(C#N)c(Nc3ccc(C)c(O)c3)c2cc1OC
99 to 100	O=C1NC(=O)C(Sc2ccc(F)cc2)S1 (stereo unspecified)
92 to 95	COC(=O)c1ccc(COc2cc(F)ccc2N)c(F)c1
85	CCCCCCC1C(=O)NC(C(=O)SC2CCCCC2)(C(O)C2C=CCCC2)C1(C)O (stereo unspecified)
129	CC=CC(C)=C1C(=O)OC(=O)C1c1cc(C)n(-c2ccc(C)cc2)c1C (stereo unspecified)
112 to 113	Nc1c(Cl)cc(-c2ccccc2)cc1Cl

melting point [°C]	Compound
100 to 102	c1ccc2c(c1)nc(-c1ccc3c(c1)OCO3)n2CC1CCCCC1
227 to 228	O=C(Cc1ccc(Oc2ccccc2)cc1)NC1(C(=O)O)Cc2ccc(-c3ccc(Cl)cc3)cc2C1 (stereo unspecified)
125	CC(C)(Oc1ccc(Oc2ccc(OC(C)(C)C(=O)O)cc2)cc1)C(=O)O
249 to 252	O=C(Nc1ccc(-n2nc(C(F)(F)F)cc2C(F)(F)F)cc1)c1ccc(-n2cccc2)cc1
164 to 165	CCN(CC)Cc1ccc(C(N)=O)o1
115 to 116	CN(C)Cc1ccc(CSCCNC(=C[N+](=O)[O-])NCC(O)c2ccccc2)o1 (stereo unspecified)
222 to 224	Cc1ccc(N2C(=O)C(O)=C(C(=O)c3ccc(C(C)C)cc3)C2c2ccc(O)cc2)nn1 (stereo unspecified)
154	CCCC1CCC(C2CCC(C3CCC(C(=O)OC)C(=O)C3)CC2)CC1 (stereo unspecified)
139 to 140	CC(C)CCCOc1c(-c2ccc(S(C)(=O)=O)cc2)cnn(-c2cccc(Cl)c2)c1=O
152	Cc1cccc(Cn2c(NC3CCN(CCO)CC3)nc3cccnc32)n1
75 to 76	COC(=O)c1nc(Br)cc(Br)c1OCc1ccccc1
214 to 216	Cc1ccc(F)c(NC(=O)c2ccccc2CN2C(=O)C3(COc4cc5c(cc43)CCO5)c3ccccc32)c1 (stereo unspecified)
143 to 145	CCC(C(C)=CC(CNC(=O)Cc1n[nH]c(=O)c2ncccc12)=NO)[N+](=O)[O-] (stereo unspecified)
187 to 188	Cc1oc(-c2ccccc2)nc1COc1ccc(COc2ccc3ccccc3c2CC(=O)O)cc1
66	COC(C)(CC(=O)NC1CCCCC1)OC
51 to 54	COc1ccc(N(CCN2CCC(C(=O)c3ccc(F)cc3)CC2)C(=O)c2ccc([N+](=O)[O-])cc2)c(OC)c1
